For seven compounds, IC50 results are on record in patent US12421254B2, “KRAS modulators and uses thereof” (Quanta Therapeutics, Inc., priority 2023, dated 2025).

As usually defined, the IC50 is the concentration at which inhibition is half-maximal.

The target of assay [1] is GST-tagged KRAS-G12V (2-169) (Homo sapiens, UniProt P01116, G12V). In words: Nucleotide exchange assay (NEA), SOS-mediated, HTRF, KRAS G12V. It is filed as biochemical. The note with it: Table 4; IC50 extracted at 90 min; 80 nM SOS. A digest of the protocol: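 GST-KRAS-G12V (2-169), 0.25 nM, pre-incubated 1 h at RT with compound, then SOS1cat (564-1049) 80 nM and GTP-DY-647P1 150 nM added in HEPES pH 7.3 buffer with MgCl2 and DTT. HTRF via anti-GST Tb cryptate read over 90 min; IC50 from 4-parameter fit at 90 min, blanked to no-SOS reactions.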
GST-tagged KRAS-G12V (2-169), sequence (P01116 2-169 isoform P01116-2 G12V): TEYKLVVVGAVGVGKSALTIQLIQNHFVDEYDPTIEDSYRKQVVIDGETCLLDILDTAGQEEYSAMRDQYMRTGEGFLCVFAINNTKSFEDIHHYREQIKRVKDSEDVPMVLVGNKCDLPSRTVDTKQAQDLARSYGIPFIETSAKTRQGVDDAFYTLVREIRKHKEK
(TR-FRET usually uses a lanthanide donor and a delayed reading to cut background.)

Assay [2] concerns the target GST-tagged KRAS-G12D (2-169) (Homo sapiens, UniProt P01116, G12D). The assay can be described thus: Nucleotide exchange assay (NEA), SOS-mediated, HTRF, KRAS G12D. In kind it is biochemical. The note with it: Table 4; IC50 extracted at 30 min; 20 nM SOScat; read-out: NEA G12D IC50. A digest of the protocol: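 Compound preincubated 1 h at RT with 0.25 nM GST-KRAS-G12D (2-169) and anti-GST Tb donor, then 20 nM SOS1cat (564-1049) and 150 nM GTP-DY-647P1 added; pH 7.3 HEPES buffer with MgCl2 and DTT. HTRF monitored at RT; % inhibition versus DMSO and no-SOS blank, 4-parameter IC50 taken at 30 min.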

GST-tagged KRAS-G12D (2-169), sequence (P01116 2-169 isoform P01116-2 G12D): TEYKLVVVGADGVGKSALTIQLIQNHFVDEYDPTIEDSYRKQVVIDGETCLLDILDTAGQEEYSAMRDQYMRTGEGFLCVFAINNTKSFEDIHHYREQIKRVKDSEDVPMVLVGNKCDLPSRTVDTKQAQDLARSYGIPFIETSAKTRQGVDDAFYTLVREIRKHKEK

For `CCN(c1nc(OC[C@]2(C(F)F)CCCN2)nc(N2CC3(C2)SCc2sc(N)c(C#N)c23)n1)[C@H](C)c1cccnc1N` [Compound 221, 2-amino-1′-[4-[[(1R)-1-(2-amino-3-pyridyl)ethyl]-ethyl-amino]-6-[[(2S)-2-(difluoromethyl)pyrrolidin-2-yl]methoxy]-1,3,5-triazin-2-yl]spiro[6H-thieno[3,4-b]thiophene-4,3′-azetidine]-3-carbonitrile], the IC50 in assay [1] and in assay [2] was less than 10 nM throughout.

Take `CCN(c1nc(OCC23CCC(CN(C)C2)N3C)nc(N2CC3(C2)SCc2sc(N)c(C#N)c23)n1)[C@H](C)c1cccnc1N` (stereo partly drawn) [Compound 218, 2′-amino-1-(4-(((R)-1-(2-aminopyridin-3-yl)ethyl)(ethyl)amino)-6-((3,8-dimethyl-3,8-diazabicyclo[3.2.1]octan-1-yl)methoxy)-1,3,5-triazin-2-yl)-6′H-spiro[azetidine-3,4′-thieno[3,4-b]thiophene]-3′-carbonitrile]: the IC50 is less than 10 nM in assay [1] and 10 to 100 nM in assay [2].

For the compound `CC(c1cccnc1N)N(C)c1nc(OC[C@@]23CCCN2C[C@H](F)C3)nc(N2CC3(C2)SCc2sc(N)c(C#N)c23)n1` (stereo partly drawn) [Compound 115, 2-amino-1′-[4-[1-(2-amino-3-pyridyl)ethyl-methyl-amino]-6-[[(2R,8S)-2-fluoro-1,2,3,5,6,7-hexahydropyrrolizin-8-yl]methoxy]-1,3,5-triazin-2-yl]spiro[6H-thieno[3,4-b]thiophene-4,3′-azetidine]-3-carbonitrile], the IC50 in assay [1] and in assay [2] was less than 10 nM throughout.

On to `CN(c1nc(OCC2(CN3CCOCC3)CC2)nc(N2CC3(CCc4sc(N)c(C#N)c43)C2)n1)[C@@H]1COC[C@@H]1O` (racemic) [Compound 94, 2-amino-1′-[4-[[rac-(3R,4R)-4-hydroxytetrahydrofuran-3-yl]-methyl-amino]-6-[[1-(morpholinomethyl)cyclopropyl]methoxy]-1,3,5-triazin-2-yl]spiro[5,6-dihydrocyclopenta[b]thiophene-4,3′-azetidine]-3-carbonitrile], for which the results for the IC50 in assay [1] and in assay [2] were 100 to 1000 nM and 1000 to 20000 nM, respectively.

Regarding `N#Cc1c(N)sc2c1C1(CN(c3nc(OC[C@@]45CCCN4C[C@H](F)C5)nc(N4C5CNCC4CC(=O)C5)n3)C1)SC2` [Compound 276, 2-amino-1′-[4-[[(2R,8S)-2-fluoro-1,2,3,5,6,7-hexahydropyrrolizin-8-yl]methoxy]-6-(7-oxo-3,9-diazabicyclo[3.3.1]nonan-9-yl)-1,3,5-triazin-2-yl]spiro[6H-thieno[3,4-b]thiophene-4,3′-azetidine]-3-carbonitrile], the IC50 in assay [1] fell in the range of 10 to 100 nM; in assay [2], 100 to 1000 nM.

On to `CCN(c1nc(OC[C@@]23CCCN2C[C@H](F)C3)nc(N2CC3(C2)SCc2sc(N)c(C#N)c23)n1)C(C)c1cccnc1N` (stereo partly drawn) [Compound 144, 2-amino-1′-[4-[1-(2-amino-3-pyridyl)ethyl-ethyl-amino]-6-[[(2R,8S)-2-fluoro-1,2,3,5,6,7-hexahydropyrrolizin-8-yl]methoxy]-1,3,5-triazin-2-yl]spiro[6H-thieno[3,4-b]thiophene-4,3′-azetidine]-3-carbonitrile], for which the IC50 in assay [1] and in assay [2] was less than 10 nM throughout.

Turning to `CC(C1=NN=CC1Cl)N(C)c1nc(OC[C@@]23CCCN2C[C@H](F)C3)nc(N2CC3(CCc4sc(N)c(C#N)c43)C2)n1` (stereo partly drawn) [Compound 127, 2-amino-1′-[4-[1-(4-chloro-1H-pyrazol-5-yl)ethyl-methyl-amino]-6-[[(2R,8S)-2-fluoro-1,2,3,5,6,7-hexahydropyrrolizin-8-yl]methoxy]-1,3,5-triazin-2-yl]spiro[5,6-dihydrocyclopenta[b]thiophene-4,3′-azetidine]-3-carbonitrile], the values for the IC50 in assay [1] and in assay [2] were 100 to 1000 nM and 1000 to 20000 nM, respectively.
